Carcinogen call data for 2 compounds are collected here from PubChem BioAssay AID1259411 (Chemical Carcinogenesis Research Information System (CCRIS), 2018).

This series has as its system rodent carcinogenicity bioassays, tumor incidence. Nature of the series: CCRIS carcinogenicity studies. Particulars: Dose: 0, Dose: 0. Summed up: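 Archive of carcinogenicity, mutagenicity, tumor promotion and tumor inhibition results drawn from journals, NCI reports and other sources, expert-reviewed; covers 1985-2011 and is no longer updated.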

Calls of active or inactive are those of the source. The rule behind the calls is not given here.

Turning to `OC(O)C(Cl)(Cl)Cl`, the carcinogen call is “inactive; negative” (Species: MOUSE, Strain/Sex: B6C3F1/FEMALE, Route: GAVAGE, 10, 25, 50 MG/KG BW ONCE AT 15 DAYS OF AGE (STUDY DURATION: 104 WK), 10, 25, 50 MG/KG BW ONCE AT 15 DAYS OF AGE (STUDY DURATION: 104 WK)); “equivocal” (Species: MOUSE, Strain/Sex: B6C3F1/FEMALE, Route: GAVAGE, 25, 50, 100 MG/KG 5 D/WK FOR 104 WK (STUDY DURATION: 104 WK), 25, 50, 100 MG/KG 5 D/WK FOR 104 WK (STUDY DURATION: 104 WK), Tumor Site: Type of Lesion: PITUITARY GLAND (PARS DISTALIS): ADENOMA); “inactive; negative” (Species: MOUSE, Strain/Sex: B6C3F1/FEMALE, Route: GAVAGE, 25, 50, 100 MG/KG BW ONCE AT 28 DAYS OF AGE (STUDY DURATION: 104 WK), 25, 50, 100 MG/KG BW ONCE AT 28 DAYS OF AGE (STUDY DURATION: 104 WK)); “equivocal” (Species: MOUSE, Strain/Sex: B6C3F1/FEMALE, Route: GAVAGE, 100 MG/KG BW 5 D/WK FOR 3 MO (STUDY DURATION: 104 WK), Tumor Site: Type of Lesion: PITUITARY GLAND (PARS DISTALIS): ADENOMA); “equivocal” (Species: MOUSE, Strain/Sex: B6C3F1/FEMALE, Route: GAVAGE, 100 MG/KG BW 5 D/WK FOR 6 MO (STUDY DURATION: 104 WK), Tumor Site: Type of Lesion: PITUITARY GLAND (PARS DISTALIS): ADENOMA); “equivocal” (Species: MOUSE, Strain/Sex: B6C3F1/FEMALE, Route: GAVAGE, 100 MG/KG BW 5 D/WK FOR 12 MO (STUDY DURATION: 104 WK), Tumor Site: Type of Lesion: PITUITARY GLAND (PARS DISTALIS): ADENOMA). Moreover, the carcinogen call is “inactive; negative” (Species: MOUSE, Strain/Sex: B6C3F1/FEMALE, Route: INTRAPERITONEAL, 1000 NMOL TOTAL DOSE, 1/3 AND 2/3 OF THE TOTAL DOSE ADMINISTERED AT 8 AND 15 DAYS OF AGE RESPECTIVELY, ANIMALS TERMIN); “inactive; negative” (Species: MOUSE, Strain/Sex: B6C3F1/FEMALE, Route: INTRAPERITONEAL, 2000 NMOL TOTAL DOSE, 3/7 AND 4/7 OF THE TOTAL DOSE ADMINISTERED AT 8 AND 15 DAYS OF AGE RESPECTIVELY, ANIMALS TERMIN); “inactive; negative” (Species: MOUSE, Strain/Sex: B6C3F1/MALE, Route: GAVAGE, 10, 25, 50 MG/KG BW ONCE AT 15 DAYS OF AGE (STUDY DURATION: 104 WK), 10, 25, 50 MG/KG BW ONCE AT 15 DAYS OF AGE (STUDY DURATION: 104 WK)); “active; positive” (Species: MOUSE, Strain/Sex: B6C3F1/MALE, Route: GAVAGE, 25, 50, 100 MG/KG IN WATER 5X/WK FOR STUDY DURATION WITH AD LIBITUM FEEDING (STUDY DURATION: 104-105 WK), 25, 50, 100 MG/KG IN WATER 5X/WK FOR STUDY DURATION WITH AD LIBITUM FEEDING (STUDY DURATION: 104-105 WK), Tumor Site: Type of Lesion: LIVER: HEPATOCELLULAR ADENOMA OR CARCINOMA); “active; positive” (Species: MOUSE, Strain/Sex: B6C3F1/MALE, Route: GAVAGE, 25, 50, 100 MG/KG IN WATER 5X/WK FOR STUDY DURATION WITH DIETARY-CONTROLLED FEEDING TO MAINTAIN IDEAL BODY WEIGHT (ST, 25, 50, 100 MG/KG IN WATER 5X/WK FOR STUDY DURATION WITH DIETARY-CONTROLLED FEEDING TO MAINTAIN IDEAL BODY WEIGHT (ST, Tumor Site: Type of Lesion: LIVER: HEPATOCELLULAR ADENOMA OR CARCINOMA); “inactive; negative” (Species: MOUSE, Strain/Sex: B6C3F1/MALE, Route: INTRAPERITONEAL, 1000 NMOL TOTAL DOSE, 1/3 AND 2/3 OF THE TOTAL DOSE ADMINISTERED AT 8 AND 15 DAYS OF AGE RESPECTIVELY, ANIMALS TERMIN). The carcinogen call is “inactive; negative” (Species: MOUSE, Strain/Sex: B6C3F1/MALE, Route: INTRAPERITONEAL, 2000 NMOL TOTAL DOSE, 3/7 AND 4/7 OF THE TOTAL DOSE ADMINISTERED AT 8 AND 15 DAYS OF AGE RESPECTIVELY, ANIMALS TERMIN); “active; positive” (Species: MOUSE, Strain/Sex: B6C3F1/MALE, Route: ORAL, 0.05, 0.5, 1 G/L IN DRINKING WATER FOR 104 WK (STUDY DURATION: 104 WK), 0.05, 0.5, 1 G/L IN DRINKING WATER FOR 104 WK (STUDY DURATION: 104 WK), Tumor Site: Type of Lesion: LIVER: HEPATOCELLULAR ADENOMA OR CARCINOMA); “active; positive” (Species: MOUSE, Strain/Sex: B6C3F1/MALE, Route: ORAL, 1 G/L DISTILLED DRINKING WATER FOR STUDY DURATION (166 MG/KG/D) (STUDY DURATION: 104 WK), Tumor Site: Type of Lesion: LIVER: HEPATOCELLULAR CARCINOMA, HEPATOCELLULAR ADENOMA); “inactive; negative” (Species: RAT, Strain/Sex: F344/N/MALE, Route: ORAL, 0.05, 0.5, 2 G/L IN DRINKING WATER FOR 104 WK (STUDY DURATION: 104 WK), 0.05, 0.5, 2 G/L IN DRINKING WATER FOR 104 WK (STUDY DURATION: 104 WK)); “inactive; negative” (Species: RAT, Strain/Sex: SPRAGUE-DAWLEY/FEMALE, Route: ORAL, 15, 45, 135 MG/KG BW/D IN DRINKING WATER FOR 128 WK (STUDY DURATION: 128 WK), 15, 45, 135 MG/KG BW/D IN DRINKING WATER FOR 128 WK (STUDY DURATION: 128 WK)); “inactive; negative” (Species: RAT, Strain/Sex: SPRAGUE-DAWLEY/MALE, Route: ORAL, 15, 45, 135 MG/KG BW/D IN DRINKING WATER FOR 124 WK (STUDY DURATION: 124 WK), 15, 45, 135 MG/KG BW/D IN DRINKING WATER FOR 124 WK (STUDY DURATION: 124 WK)).

`O=[N+]([O-])c1cc2cccc3ccc4cccc1c4c32`: the carcinogen call was “active; positive” (Species: RAT, Strain/Sex: STRAIN-CD/FEMALE, Route: INJECTION, 0.1 ML IN 20.3 UMOL/ML DMSO INJECTED INTO MAMMARY TISSUE OF THE 3 LEFT THORACIC NIPPLES FOLLOWED THE NEXT D BY SIMILA, Tumor Site: Type of Lesion: MAMMARY GLAND: FIBROADENOMA, ADENOCARCINOMA); “active; positive” (Species: RAT, Strain/Sex: STRAIN-CD/FEMALE, Route: INJECTION, 0.1 ML OF A 20.3 UMOL/ML SOLUTION IN DMSO INJECTED INTO MAMMARY TISSUE UNDERLYING 3 LEFT THORACIC NIPPLES THE FOLLOWI, Tumor Site: Type of Lesion: MAMMARY GLAND: FIBROADENOMA); “active; positive” (Species: RAT, Strain/Sex: STRAIN-CD/FEMALE, Route: INTRAPERITONEAL, 67 UMOL/KG BW IN DMSO 3/WK FOR 4 WK (STUDY DURATION: 61 WK), Tumor Site: Type of Lesion: MAMMARY GLAND: ADENOCARCINOMA); “active; positive” (Species: RAT, Strain/Sex: STRAIN-CD/FEMALE, Route: INTRAPERITONEAL, 67 UMOL/KG/BW IN 25 UMOL/ML DMSO 3/WK FOR 4 WK (TOTAL DOSE: 0; 119 UMOL) ADMINISTERED TO WEANLING RATS (STUDY DURATIO, 67 UMOL/KG/BW IN 25 UMOL/ML DMSO 3/WK FOR 4 WK (TOTAL DOSE: 0; 119 UMOL) ADMINISTERED TO WEANLING RATS (STUDY DURATIO, Tumor Site: Type of Lesion: MAMMARY GLAND: ADENOCARCINOMA); “active; positive” (Species: RAT, Strain/Sex: STRAIN-CD/FEMALE, Route: SUBCUTANEOUS, 75 UMOL (TOTAL DOSE) ADMINISTERED OVER 8 WK BEGINNING WITHIN 24 HR OF BIRTH (STUDY DURATION: 86 WK), Tumor Site: Type of Lesion: MAMMARY GLAND: TUMOR, INTEGUMENTARY SYSTEM: MALIGNANT FIBROUS HISTIOCYTOMA, HEMATOPOIETIC SYSTEM: LEUKEMIA, ZYMBAL GLAND, Tumor Site: Type of Lesion: MAMMARY GLAND: TUMOR, INTEGUMENTARY SYSTEM: MALIGNANT FIBROUS HISTIOCYTOMA, HEMATOPOIETIC SYSTEM: LEUKEMIA, ZYMBAL GLAND).
